Assay results published in ChEMBL document CHEMBL1131012, “Heteroaryl analogues of AMPA. 2. Synthesis, absolute stereochemistry, photochemistry, and structure-activity relationships” (J Med Chem, 1998).

How the values were obtained:
Glutamate NMDA receptor = assay: Ability to inhibit the binding of [3H]CPP radioligand to N-methyl-D-aspartate glutamate receptor in rat brain membranes.; format: cell membranes
[1] = molecular target: T1, Glutamate receptor ionotropic, AMPA (Rattus norvegicus, UniProt P19490+P19491+P19492+P19493)
Description: Agonist effect for Ionotropic glutamate receptor AMPA was determined from in vitro electrophysiology studies using rat cortical wedge preparation.

[2] = molecular target: Glutamate receptor ionotropic, kainate; assay: Ability to inhibit the binding of [3H]-kainic acid radioligand to Ionotropic glutamate receptor kainate in rat brain membranes.; format: cell membranes
[3] = molecular target: T1, Glutamate receptor ionotropic, AMPA; remark: listed apart in the source
Description: Ability to inhibit the binding of [3H]AMPA radioligand to Ionotropic glutamate receptor AMPA in rat brain membranes.

| SMILES | IC50 (Glutamate NMDA receptor) [µM] | EC50 [1] [µM] | IC50 [2] [µM] | IC50 [3] [µM] |
| --- | --- | --- | --- | --- |
| C=C(C)[C@H]1CN[C@H](C(=O)O)[C@H]1CC(=O)O [KAINIC ACID] | > 100 | – | – | – |
| Cc1cccc(-c2onc(O)c2CC(N)C(=O)O)n1 (stereo unspecified) | > 100 | > 1000 | > 100 | > 100 |
| NC(Cc1c(O)noc1-c1ccccn1)C(=O)O (stereo unspecified) | > 100 | 7.4 | > 100 | 0.57 |
| N[C@@H](Cc1c(O)noc1-c1ccco1)C(=O)O | > 100 | 0.71 | > 100 | 0.11 |
| NC(Cc1c(O)noc1-c1ccncc1)C(=O)O (stereo unspecified) | > 100 | 96 | > 100 | 5.5 |
| NC(Cc1c(O)noc1-c1ccco1)C(=O)O (stereo unspecified) | > 100 | 1.7 | > 100 | 0.15 |
| N[C@H](Cc1c(O)noc1-c1ccco1)C(=O)O | > 100 | > 1000 | > 100 | 100 |
| NC(Cc1c(O)noc1-c1cccnc1)C(=O)O (stereo unspecified) | > 100 | > 1000 | > 100 | > 100 |
| NC(Cc1c(O)noc1-c1ccc2ccccc2n1)C(=O)O (stereo unspecified) | > 100 | > 1000 | > 100 | > 100 |
| NC(Cc1c(O)noc1-c1ccc(Br)o1)C(=O)O (stereo unspecified) | > 100 | 160 | > 100 | 12 |
| N[C@H](Cc1c(O)noc1-c1ccccc1)C(=O)O | – | > 100 | – | – |
| N[C@H](Cc1c(O)noc1-c1ccccn1)C(=O)O | > 100 | > 100 | > 100 | > 100 |
| N[C@@H](Cc1c(O)noc1-c1ccccn1)C(=O)O | > 100 | 4.5 | > 100 | 0.19 |
| NC(Cc1c(O)noc1-c1nccs1)C(=O)O (stereo unspecified) | > 100 | 2.3 | 4.9 | 0.094 |
| N[C@@H](Cc1c(-c2ccccc2)o[nH]c1=O)C(=O)O | – | – | – | 5.5 |
